These results are taken from ChEMBL document CHEMBL1146267, “2,6-Disubstituted N-arylsulfonyl piperidines as gamma-secretase inhibitors” (Bioorg Med Chem Lett, 2007).

Molecules are shown by their SMILES. pIC50: −log10 of the molar value.

In this test the target is Gamma-secretase. Put plainly: Inhibition of gamma secretase-mediated amyloid-beta peptid […]. In kind it is protein-complex assay, Homo sapiens.
In general, pIC50 refers to the IC50 on a negative log10 scale, so that one unit is a factor of ten. Low values mean a high IC50, high ones a low IC50. Regarding `O=C(NCCCn1ccnc1)OCC1CCc2ccc(F)cc2N1S(=O)(=O)c1ccc(Cl)cc1` (configuration not stated), the pIC50 was 6.57. For `CC1CC(N2CCCCC2)CCN1C(=O)OC[C@H]1CCC[C@@H](c2cc(F)cc(F)c2)N1S(=O)(=O)c1ccc(Cl)cc1` (mixture of isomers), the negative logarithm of the IC50 (pIC50) was 8.15. Then `C[C@@H]1CCC[C@H](COC(=O)N2CCC(N3CCCCC3)CC2)N1S(=O)(=O)c1ccc(Cl)cc1` (racemic), with 7.12; and `O=C(OC[C@H]1CCC[C@@H](c2cccc(F)c2)N1S(=O)(=O)c1ccc(Cl)cc1)N1CCC(N2CCCCC2)CC1` [listing 1 of 2 here], with 7.08; and `CC1CN(C2CCCCC2)CCN1C(=O)OC[C@H]1CCC[C@@H](c2ccccc2)N1S(=O)(=O)c1ccc(Cl)cc1` (mixture of isomers), with 7.15. Then `C[C@@H]1CCC[C@H](COC(=O)N2CCCC2)N1S(=O)(=O)c1ccc(Cl)cc1` (relative stereo), with 5.71; and `O=C(OC[C@H]1CCC[C@@H](c2ccccc2F)N1S(=O)(=O)c1ccc(Cl)cc1)N1CCC(N2CCCCC2)CC1` (racemic), with 8.10. `O=C(OC[C@H]1CCC[C@@H](c2ccccc2)N1S(=O)(=O)c1ccc(Cl)cc1)N1CCC(N2CCCCC2)CC1` (racemic) had a negative-log IC50 (pIC50) of 7.80.

Compound `CC1CC(N2CCCCC2)CCN1C(=O)OC[C@H]1CCC[C@@H](c2cccc(F)c2)N1S(=O)(=O)c1ccc(Cl)cc1` (mixture of isomers) had a negative-log IC50 (pIC50) of 7.89. Then `C[C@@H]1CCC[C@H](COC(=O)N2CCC(N(C)C3CCN(C)CC3)CC2)N1S(=O)(=O)c1ccc(Cl)cc1` (racemic), with 6.66; and `O=C(OC[C@H]1CCC[C@@H](c2cc(F)ccc2F)N1S(=O)(=O)c1ccc(Cl)cc1)N1CCC(N2CCCCC2)CC1` (racemic), with 8.00; and `CC[C@@H]1CCC[C@H](COC(=O)N2CCC(N(C)C3CCN(C)CC3)CC2)N1S(=O)(=O)c1ccc(Cl)cc1` (racemic), with 6.80. Compound `CC1CN(CC2CC2)CCN1C(=O)OC[C@H]1CCC[C@@H](c2ccccc2)N1S(=O)(=O)c1ccc(Cl)cc1` (mixture of isomers) had a negative-log IC50 (pIC50) of 7.43. Then `C[C@@H]1CCC[C@@H](COC(=O)N2CCCC2)N1S(=O)(=O)c1ccc(Cl)cc1` (relative stereo), with 4.97; and `O=C(OC[C@H]1CCC[C@@H](c2cc(F)cc(F)c2)N1S(=O)(=O)c1ccc(Cl)cc1)N1CCC(N2CCCCC2)CC1` (racemic), with 8.40. `O=C(OC[C@H]1CCC[C@@H](c2cccc(F)c2)N1S(=O)(=O)c1ccc(Cl)cc1)N1CCN(C2CCCCC2)CC1` (racemic) gave a negative-log IC50 (pIC50) of 7.42. Then `O=C(OCC1CCc2ccc(F)cc2N1S(=O)(=O)c1ccc(Cl)cc1)N1CCCC1` (configuration not stated), with 6.17; and `CC1CN(CC2CC2)CCN1C(=O)OC[C@H]1CCC[C@@H](c2cccc(F)c2)N1S(=O)(=O)c1ccc(Cl)cc1` (mixture of isomers), with 7.59. Then `O=C(OC[C@H]1CCC[C@@H](c2cccc(F)c2)N1S(=O)(=O)c1ccc(Cl)cc1)N1CCC(N2CCCCC2)CC1` [listing 2 of 2 here], with 8.52; and `O=C(OC[C@H]1CCC[C@@H](c2cc(F)cc(F)c2)N1S(=O)(=O)c1ccc(Cl)cc1)N1CCN(C2CCCCC2)CC1` (racemic), with 7.44; and `C[C@@H]1CCC[C@H](COC(=O)NCCCn2ccnc2)N1S(=O)(=O)c1ccc(Cl)cc1` (relative stereo), with 6.24. Then `O=C(OC[C@H]1CCC[C@@H](c2ccc(F)c(F)c2)N1S(=O)(=O)c1ccc(Cl)cc1)N1CCN(C2CCCCC2)CC1` (racemic), with 7.59. On to `O=C(OC[C@H]1CCC[C@@H](c2ccc(F)c(F)c2)N1S(=O)(=O)c1ccc(Cl)cc1)N1CCC(N2CCCCC2)CC1` (racemic), for which the negative-log IC50 (pIC50) is 8.10.

`O=C(OC[C@H]1CCC[C@@H](c2cccc(F)c2)N1S(=O)(=O)c1ccc(Cl)cc1)N1CCC(N2CCCCC2)CC1` (racemic) had a negative logarithm of the IC50 (pIC50) of 7.96.

`O=C(NCCCn1ccnc1)OCC1CCCCN1S(=O)(=O)c1ccc(Cl)cc1` (configuration not stated): the negative logarithm of the IC50 (pIC50) is 4.81. Take `CN1CCC(N(C)C2CCN(C(=O)OC[C@H]3CCC[C@@H](Cc4ccccc4)N3S(=O)(=O)c3ccc(Cl)cc3)CC2)CC1` (racemic): the negative logarithm of the IC50 (pIC50) is 4.91.

`C[C@@H]1CCC[C@@H](COC(=O)NCCCn2ccnc2)N1S(=O)(=O)c1ccc(Cl)cc1` (relative stereo): the pIC50 was 5.19. Then `O=C(OC[C@H]1CCC[C@@H](Cc2ccccc2)N1S(=O)(=O)c1ccc(Cl)cc1)N1CCC(N2CCCCC2)CC1` (racemic), with 5.32; and `O=C(OC[C@H]1CCC[C@@H](c2ccccc2F)N1S(=O)(=O)c1ccc(Cl)cc1)N1CCN(C2CCCCC2)CC1` (racemic), with 7.77; and `O=C(OC[C@H]1CCC[C@@H](c2cc(F)ccc2F)N1S(=O)(=O)c1ccc(Cl)cc1)N1CCN(C2CCCCC2)CC1` (racemic), with 7.55. `O=C(OC[C@H]1CCC[C@@H](c2ccccc2)N1S(=O)(=O)c1ccc(Cl)cc1)N1CCN(C2CCCCC2)CC1` (racemic) showed a negative logarithm of the IC50 (pIC50) of 7.17. Then `CC1CCC2CCCCC2N1S(=O)(=O)c1ccc(Cl)cc1` (configuration not stated), with 5.60.
